Source: patent publication US12569484B2, “Use of phosphodiesterase 5 inhibitor in preparation of medicament for resisting fibrotic diseases” (SHENZHEN HANHUI PHARMACEUTICAL TECHNOLOGY CO., LTD., priority 2019, dated 2026)

Tested on: idiopathic pulmonary fibrosis model rats
Assay: Bleomycin-induced idiopathic pulmonary fibrosis model
Assay type: in vivo, male SD rats
Settings: IPF rats; for degree of pulmonary fibrosis in the left lung (Ashcroft score): oral once a day 14 days
Procedure: 48 male SD rats were randomly divided into 6 groups according to their body weights, with 8 rats in each group: a sham operation group (Sham), a model group, a nintedanib-50 mg/kg group (BIBF-50 mg/kg), a tadalafil-5 mg/kg group, a tadalafil-20 mg/kg group, and a sildenafil-20 mg/kg group. All the operations involved in this experiment were implemented under the guiding principle of KCI animal experiment operation SOP. After the animals were purchased, they were fed adaptively for 3-7 days before modeling. After weighing, the animals were anesthetized with isoflurane inhalation. After it was confirmed that the animals were anesthetized, the neck was sterilized, the skin of the neck was cut open, a main trachea was exposed by blunt dissection of muscle, a small incision was made between tracheal rings, a PE-20 tube was inserted into a left main bronchus, bleomycin (dosage: 3 mg/kg, volume: 1.0 ml/kg) was directly injected, and the trachea and skin were sutured. After the operation was completed, the animals were put in an electric blanket at 37° C. to keep them warm until they fully woke up, and the animals were returned into feeding cages for normal feeding after it was confirmed that they could eat and drink freely. • (i) sham operation group and model group: the mice were given normal saline by intragastric administration according to their body weights at a dosage of 1 ml·100 g^-1·d^-1; • (ii) nintedanib-50 mg/kg group (BIBF-50 mg/kg): BIBF was formulated into a 10 mg/ml solution with 0.5% sodium carboxymethyl cellulose, and administrated intragastrically at a dosage of 50 mg·kg^-1·d^-1; • (iii) tadalafil-5 mg/kg group: tadalafil was diluted into a 1 mg/ml solution with 0.5% sodium carboxymethylcellulose, and administrated intragastrically at a dosage of 5 mg·kg^-1·d^-1; • (iv) tadalafil-20 mg/kg group: tadalafil was diluted into a 4 mg/ml solution with 0.5% sodium carboxymethylcellulose, and administrated intragastrically at a dosage of 20 mg·kg^-1·d^-1; • (v) sildenafil-20 mg/kg group: sildenafil was diluted into a 4 mg/ml solution with 0.5% sodium carboxymethylcellulose, and administrated intragastrically at a dosage of 20 mg·kg^-1·d^-1, and • the rats in each group were administrated intragastrically once a day for 14 days in total on the day of modeling. • (1) according to an interspecific dosage conversion method currently adopted by FDA, USA, the conversion coefficient of rats and human was 0.162. Therefore, according to the dosage and time of intragastric administration of tadalafil in the mice in this example, it was inferred that the oral dosage of human was 0.81-3.24 mg·kg^-1·d^-1, and the administration time was 14 days; and according to the dosage and time of intragastric administration of sildenafil in the mice in this example, it was inferred that the oral dosage of human was 3.24 mg·kg^-1·d^-1, and the administration time was 14 days. • (2) according to dosage conversion among different routes of administration in pharmacological experimental methodology, a dosage ratio of intramuscular injection and intraperitoneal injection to oral administration was about 0.3-0.4, so it was inferred that the injection dosage of tadalafil in human was 0.243-1.296 ml·kg^-1·d^-1, and the administration time was 14 days (medicament concentration: 1 mg/ml); and the injection dosage of sildenafil in human was 0.972-1.296 ml·kg^-1·d^-1, and the administration time was 14 days (medicament concentration: 1 mg/ml). 2.4 Experimental Indexes and Determining Methods 2.4.1 Weight and Volume of Left Lung of IPF Rats After 14 days of continuous administration, all animals were euthanized by intraperitoneal injection of a pentobarbital sodium anesthetic (100 mg/kg) to the animals in each group according to a KCI standard operating procedure for animal euthanasia. All animals were perfused with low-temperature PBS systematically, and then perfused systematically with formalin for fixation. […]

[1] = 14 days intragastric, BIBF 50 mg/kg, tadalafil 5 and 20 mg/kg, sildenafil 20 mg/kg
[2] = BIBF 50 mg/kg, tadalafil 5 and 20 mg/kg, sildenafil 20 mg/kg, vs model group, p<0.05

| Compound | alveolar tissue structure in the pulmonary fibrosis lesion of the left lung (HE staining) [1] | alveolar tissue structure in the pulmonary fibrosis lesion of the left lung (Masson Trichrom staining) [1] | pulmonary fibrosis lesion and lesion range in the left lung (H&E and Masson Trichrom staining) (14 days intragastric, BIBF 50 mg/kg, tadalafil 5 and 20 mg/kg, sildenafil 20 mg/kg, vs model group) | scores of injury degrees of bronchioles and pulmonary arterioles in the center and margin of the pulmonary fibrosis lesion (14 days intragastric, BIBF 50 mg/kg, tadalafil 5 and 20 mg/kg, sildenafil 20 mg/kg, vs model group, p<0.05) | percentage of the pulmonary fibrosis degree (Ashcroft score of 3 as a boundary) (14 days intragastric, vs model group, p<0.05) | degree of pulmonary fibrosis in the left lung (Ashcroft score) [2] |
| --- | --- | --- | --- | --- | --- | --- |
| COC(=O)c1ccc2c(c1)NC(=O)/C2=C(\Nc1ccc(N(C)C(=O)CN2CCN(C)CC2)cc1)c1ccccc1 [BIBF, nintedanib] | some alveolar structures in the fibrosis lesion were still damaged | some alveolar structures disappeared in the fibrosis lesion | no significant difference | significantly decreased | significantly decreased | significantly improved |
| CCCc1nn(C)c2c(=O)[nH]c(-c3cc(S(=O)(=O)N4CCN(C)CC4)ccc3OCC)nc12 [sildenafil] | the alveolar structure in the fibrosis lesion was preserved | most of the alveolar structures in the fibrosis lesion were preserved | – | – | – | significantly inhibit |
